Measurements published in ChEMBL document CHEMBL3272129, “Synthesis of 3-(4-acylaminopiperazin-1-ylalkyl)indoles as potential antihypertensive agents” (1977).
The source made the active and inactive calls. The calls are words filed in the database; no cut-off is given here.

How the values were obtained:
Format in all cases: functional
[1] = tested on: Rattus norvegicus; test: Antihypertensive activity in spontaneous hypertensive rat model assessed as change in blood pressure at 100 mg/kg, po on day 1 and 3 measured 2 hrs post dose on day 1 by standard 3-day test
[2] = tested on: Rattus norvegicus; test: Antihypertensive activity in spontaneous hypertensive rat model assessed as change in blood pressure at 100 mg/kg, po on day 1 and 3 measured 2 hrs post dose on day 3 by standard 3-day test
[3] = tested on: Rattus norvegicus; test: Antihypertensive activity in spontaneous hypertensive rat model assessed as change in blood pressure at 50 mg/kg, po on day 1 and 3 measured 2 hrs post dose on day 3 by standard 3-day test

Row | SMILES | Activity [1] | Activity [2] | Activity [3]
1 | Cc1[nH]c2ccccc2c1CCN1CCN(NC(=O)c2ccc([N+](=O)[O-])cc2)CC1 | 25 mmHg | 20 mmHg | 
2 | Cc1ccccc1C(=O)NN1CCN(CCc2c[nH]c3ccccc23)CC1 | 19 mmHg | 19 mmHg | 
3 | COc1cc(C(=O)NN2CCN(Cc3c[nH]c4ccccc34)CC2)cc(OC)c1OC | 20 mmHg | 36 mmHg | 
4 | COc1cc2[nH]c(C)c(CCN3CCN(NC(=O)c4ccccc4OC)CC3)c2cc1OC.Cl | 4 mmHg | 15 mmHg | 
5 | O=C(NN1CCN(CCc2c[nH]c3ccccc23)CC1)C1CC2CCC1C2 (stereo unspecified) | 20 mmHg | 11 mmHg | 
6 | COc1cccc(C(=O)NN2CCN(CCc3c[nH]c4ccccc34)CC2)c1 | 21 mmHg | 2 mmHg | 
7 | O=C(NN1CCN(CCc2c[nH]c3ccccc23)CC1)C(c1ccccc1)c1ccccc1 | 3 mmHg | 10 mmHg | 
8 | CC(=O)NN1CCN(CCc2c[nH]c3ccccc23)CC1 | 32 mmHg | 40 mmHg | 
9 | Cc1ccc(C(=O)NN2CCN(CCc3c[nH]c4ccccc34)CC2)cc1 | 18 mmHg | 43 mmHg | 
10 | Cc1[nH]c2ccccc2c1CCN1CCN(NC(=O)c2ccccc2)CC1 | 39 mmHg | 37 mmHg | 
11 | O=C(NN1CCN(Cc2c[nH]c3ccccc23)CC1)c1ccc(F)cc1 | Active | Active | 
12 | O=C(NN1CCN(CCc2c[nH]c3ccccc23)CC1)c1ccc(F)cc1 | 56 mmHg | 57 mmHg | 
13 | O=C(NN1CCN(CC(O)c2c[nH]c3ccccc23)CC1)c1ccccc1 (racemic) | 30 mmHg | 33 mmHg | 
14 | O=C(NN1CCN(CCc2c[nH]c3ccccc23)CC1)c1ccc(Cl)cc1 | 17 mmHg | 22 mmHg | 
15 | O=C(NN1CCN(CCc2c[nH]c3ccccc23)CC1)c1cccc(C(F)(F)F)c1 | 49 mmHg | 19 mmHg | 
16 | COc1cc2[nH]c(C)c(CCN3CCN(NC(=O)c4ccc(F)cc4)CC3)c2cc1OC | 9 mmHg | 23 mmHg | 
17 | O=C(NN1CCN(Cc2c[nH]c3ccccc23)CC1)c1ccccc1 | Active | Active | 

Row | SMILES | Activity [1] | Activity [2] | Activity [3]
18 | Cc1[nH]c2ccccc2c1CCN1CCN(NC(=O)c2ccc(F)cc2)CC1 | 29 mmHg | 25 mmHg | 
19 | O=C(NN1CCN(CCc2c[nH]c3ccccc23)CC1)c1ccc([N+](=O)[O-])cc1 | 17 mmHg | 16 mmHg | 
20 | COc1ccc(C(=O)NN2CCN(CCc3c[nH]c4ccccc34)CC2)cc1 | 25 mmHg | 19 mmHg | 
21 | O=C(NN1CCN(CCc2c[nH]c3ccccc23)CC1)c1ccco1 | 58 mmHg | 64 mmHg | 
22 | Cl.O=C(NC1CCN(CCc2c[nH]c3ccccc23)CC1)c1ccccc1 [INDORAMIN HYDROCHLORIDE] | 63 mmHg |  | 79 mmHg
23 | COc1cc2[nH]c(C)c(CCN3CCN(NC(=O)c4ccccc4)CC3)c2cc1OC | 9 mmHg | 12 mmHg | 
24 | Cc1cccc(C(=O)NN2CCN(CCc3c[nH]c4ccccc34)CC2)c1 | 17 mmHg | 26 mmHg | 
25 | O=C(NN1CCN(CCc2c[nH]c3ccccc23)CC1)c1ccccc1F | 47 mmHg | 56 mmHg | 
26 | COc1cc(OC)cc(C(=O)NN2CCN(CCc3c[nH]c4ccccc34)CC2)c1 | 46 mmHg | 111 mmHg | 
27 | COc1cc(C(=O)NN2CCN(CCc3c[nH]c4ccccc34)CC2)cc(OC)c1OC | 63 mmHg | 70 mmHg | 
28 | O=C(NN1CCN(CCc2c[nH]c3ccccc23)CC1)C1CCCCC1 | 37 mmHg | 35 mmHg | 
29 | O.O=C(NN1CCN(CCc2c[nH]c3ccccc23)CC1)c1ccccc1 | 24 mmHg | 56 mmHg | 
30 | O=C(NN1CCN(CCc2c[nH]c3ccccc23)CC1)c1ccncc1 | 23 mmHg | 24 mmHg | 
31 | O=C(NN1CCN(CCc2c[nH]c3ccccc23)CC1)c1ccc(C(F)(F)F)cc1 | 9 mmHg | 36 mmHg | 
32 | COc1cc2[nH]c(C)c(CCN3CCN(NC(=O)c4ccc(C(F)(F)F)cc4)CC3)c2cc1OC.Cl | 2 mmHg | 5 mmHg | 
33 | COc1ccccc1C(=O)NN1CCN(CCc2c[nH]c3ccccc23)CC1 | 7 mmHg | 23 mmHg | 
